# Results as given in BindingDB's records for patent US20240124427 (Idorsia Pharmaceuticals, 2024).
# Target: Galectin-3 (Homo sapiens, UniProt P17931)
# Test: Spectrophotometric Assay
# Method: The inhibitory activity of compounds is determined in competitive binding assays. […] Finally, 25 μL/well of ABTS substrate is added.
# Sequence of Galectin-3 (P17931 whole entry): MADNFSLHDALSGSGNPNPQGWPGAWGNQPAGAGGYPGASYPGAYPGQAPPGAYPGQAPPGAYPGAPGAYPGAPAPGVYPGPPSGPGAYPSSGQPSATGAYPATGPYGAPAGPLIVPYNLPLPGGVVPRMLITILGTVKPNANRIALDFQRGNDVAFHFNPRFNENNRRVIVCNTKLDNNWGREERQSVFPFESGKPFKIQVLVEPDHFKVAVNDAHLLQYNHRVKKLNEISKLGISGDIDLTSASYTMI
row,Structure (SMILES),IC50 [µM]
1,"CO[C@@H]1[C@@H](n2cc(-c3cc(F)c(F)c(F)c3)nn2)[C@@H](O)[C@@H](CO)O[C@H]1C(=O)N(c1cc(Br)cc(C#N)c1)[C@@H]1COC[C@H]1O [US20240124427, Example 36]",0.067
2,"CO[C@@H]1[C@@H](n2cc(-c3cc(F)c(Cl)c(F)c3)nn2)[C@@H](O)[C@@H](CO)O[C@H]1C(=O)N(c1cc(Br)cc(C#N)c1)[C@H]1COC[C@@H]1O [US20240124427, Example 24]",0.073
3,"CO[C@@H]1[C@@H](n2cc(-c3cc(F)c(F)c(F)c3)nn2)[C@@H](O)[C@@H](CO)O[C@H]1C(=O)N(c1cc(Cl)cc(Cl)c1)[C@H]1COC[C@@H]1O [US20240124427, Example 4]",0.072
4,"CO[C@@H]1[C@@H](n2cc(-c3cc(F)c(Cl)c(F)c3)nn2)[C@@H](O)[C@@H](CO)O[C@H]1C(=O)N(c1cc(Br)cc(C#N)c1)[C@@H]1COC[C@H]1O [US20240124427, Example 53]",0.046
5,"CO[C@@H]1[C@@H](n2cc(-c3cc(F)c(F)c(F)c3)nn2)[C@@H](O)[C@@H](CO)O[C@H]1C(=O)N(c1cc(Br)cc(C#N)c1)[C@H]1COC[C@@H]1O [US20240124427, Example 7]",0.083
6,"CO[C@@H]1[C@@H](n2cc(-c3ccc(Br)c(F)c3F)nn2)[C@@H](O)[C@@H](CO)O[C@H]1C(=O)N(c1cc(Cl)cc(Cl)c1)[C@H]1CNC[C@@H]1O [US20240124427, Example 62]",0.012
